How the values were obtained:
GPD1 = GPD1 (Homo sapiens (Human), UniProt P21695); test: Counter-screen against GPD1; assay type: biochemical; settings: Table E11
Method: GAPDH substrate buffer contained 210 mM Tris pH 7.4, 2.5 mM NaH2PO4 pH 7.4, 2 mM DL-Glyceraldehyde 3-phosphate, 1.75 mM MgCl2, 0.01 mM NAD+, 0.11 mM resazurin, 0.2 mg/mL BSA, and 0.01% Tween-20. GAPDH enzyme buffer contained 50 mM Tris pH 7.4, 100 mM NaCl, 0.02 mM TCEP, 0.01 mM EDTA, 0.1 mg/mL BSA, 0.42 mg/mL diaphorase, and 2.5 nM GAPDH. The GAPDH, GPD1, and GPD1L assays were run in 384-well plates using the same protocol and readout as the PHGDH assay. […] GPD1 enzyme buffer contained 50 mM Tris pH 7.4, 100 mM NaCl, 0.08 mM TCEP, 0.4 mg/mL BSA, 0.03 μM EDTA, and 0.8 nM GPD1. 70 μL of substrate buffer were mixed with 10 μL enzyme buffer. GPD1L substrate buffer contained 200 mM Tris pH 7.4, 0.05 mM sn-G3-P, 2 mM MgCl2, 0.04 mM NAD+, 0.11 mM resazurin, 0.1 mg/mL BSA, and 0.02% Tween-20. GPD1L enzyme buffer contained 50 mM Tris pH 7.4, 100 mM NaCl, 0.02 mM TCEP, 0.42 mg/mL diaphorase, 0.1 mg/mL BSA, 0.008 μM EDTA, and 16 nM GPD1L. 40 μL of substrate buffer were mixed with 40 μL of enzyme buffer.
The GAPDH and GPD1L assays were read using the same protocol as the PHGDH assay. The GPD1 assay was read using loss of NADH fluorescence (λex=340 nm and λem=460 nm).

[1] = Pharmacokinetics after intraperitoneal administration; assay type: in vivo
[2] = tested on: MDA-MB-468 orthotopic xenografts; test: MDA-MB-468 orthotopic xenografts; assay type: in vivo, mouse; settings: 40 mg/kg daily, IP
Method: Female NOD.CB17-Prkdc^scid/J mice, 6-8 weeks old, were obtained from Jackson Laboratories. All animals were provided with food ad libitum for the duration for the duration of the experiment. The animals were allocated randomly for induction with MDA-MB-231 or MDA-MB-468 tumors and tumor group was assigned blindly. 500,000 MDA-MB-231 or MDA-MB-468 cells were injected into the 4th mammary fat pad of each mouse. After 30 days, the tumors were palpable, and the mice were pooled by tumor type and divided randomly to two groups, which were assigned blindly to vehicle or NCT-503 treatment. […] Caliper measurements were obtained twice weekly and tumor volumes were calculated with the modified ellipsoid formula: volume=0.5×width^2×length.
For quantitation of necrotic regions, fixed tumors were embedded and sections stained with hematoxylin and eosin. Slides were scanned with a Leica Aperio AT2 brightfield scanner. Tumor and necrotic cross-sectional regions were manually delineated and measured using Leica ImageScope software to calculate the percentage of necrosis.

MDA-MB-468 tumors = test: U-13C-glucose infusion in mice bearing MDA-MB-468 tumors (target engagement); assay type: in vivo, mouse
Method: Thus, the PHGDH inhibitors described herein engage PHGDH in tumors and recapitulate the selective toxicity of PHGDH knockdown in vivo.
Chronic catheters were surgically implanted into the jugular veins of normal or tumor bearing animals 3-4 days prior to infusions. Animals were fasted for 6 hours (morning fast) and infusions were performed in free-moving, conscious animals at 1:00 pm for all studies to minimize metabolic changes associated with circadian rhythm. […] Animals were terminally anesthetized with sodium pentobarbital and all tissues were fully harvested in less than 5 minutes to preserve the metabolic state. Tumors and adjacent lung tissue were carefully dissected and rapidly frozen using a BioSqueezer (BioSpec Products) to ensure rapid quenching of metabolism throughout the tissue section. Tissues were stored at −80 C and extracted with 80:20 (v/v) methanol:water in the same manner as cells prior to LCMS analysis.

C234S PHGDH = C234S PHGDH (Homo sapiens (Human), UniProt O43175, C234S); test: Inhibition of C234S mutant PHGDH in vitro; assay type: biochemical; settings: C234S vs wild type PHGDH
Solubility = assay type: physicochemical
MDA-MB-468 cells = test: Cell cycle analysis; assay type: cell-based, human; settings: after 48 hours

Sequence of C234S PHGDH (O43175 whole entry C234S): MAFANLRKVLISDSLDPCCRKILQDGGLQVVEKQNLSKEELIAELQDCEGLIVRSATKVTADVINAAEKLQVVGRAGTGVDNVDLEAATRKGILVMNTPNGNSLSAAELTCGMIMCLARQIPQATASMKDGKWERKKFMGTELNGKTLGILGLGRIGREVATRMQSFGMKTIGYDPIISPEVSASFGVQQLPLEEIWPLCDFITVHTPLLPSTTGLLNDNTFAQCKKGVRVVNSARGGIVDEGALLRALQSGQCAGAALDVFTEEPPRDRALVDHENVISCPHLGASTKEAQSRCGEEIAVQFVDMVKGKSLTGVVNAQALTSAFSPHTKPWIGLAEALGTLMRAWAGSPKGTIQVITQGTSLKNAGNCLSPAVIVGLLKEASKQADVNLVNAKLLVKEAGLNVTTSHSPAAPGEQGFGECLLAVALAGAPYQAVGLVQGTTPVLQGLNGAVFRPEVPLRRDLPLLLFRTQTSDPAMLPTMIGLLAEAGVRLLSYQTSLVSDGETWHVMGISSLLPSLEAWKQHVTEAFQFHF
Sequence of GPD1 (P21695 whole entry): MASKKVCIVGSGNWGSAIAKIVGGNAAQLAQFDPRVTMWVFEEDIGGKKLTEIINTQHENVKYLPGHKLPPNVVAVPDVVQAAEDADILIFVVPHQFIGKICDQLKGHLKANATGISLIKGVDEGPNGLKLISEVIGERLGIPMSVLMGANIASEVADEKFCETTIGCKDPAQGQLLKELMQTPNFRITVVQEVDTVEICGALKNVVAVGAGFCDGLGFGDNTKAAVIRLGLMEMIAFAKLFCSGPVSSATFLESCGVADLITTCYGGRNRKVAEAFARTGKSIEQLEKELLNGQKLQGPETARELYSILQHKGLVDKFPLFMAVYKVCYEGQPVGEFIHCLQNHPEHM

For `Cc1cc(C)nc(NC(=S)N2CCN(Cc3ccc(C(F)(F)F)cc3)CC2)c1` [Compound 267, N-(4,6-dimethylpyridin-2-yl)-4-(4-(trifluoromethyl)benzyl)piperazine-1-carbothioamide], which IC50 (GPD1) is on record?
The IC50 was ≥ 100 µM.

And the “partitioning into the liver and brain” value [1]?
Its value is “significant partitioning”.

And the fraction of necrosis [2]?
The fraction of necrosis was “increases the fraction of necrosis”.

What about the “growth and weight of xenografts” value [2] of the same molecule?
Its value is “reduced the growth and weight”.

And the “production of glucose-derived serine in tumors” value (MDA-MB-468 tumors)?
The value was “decreased production”.

What about the “reduction of potency of PHGDH inhibition by C234S mutation” value (C234S PHGDH) of the same molecule?
Its value is “approximately 3 fold”.

What about the aqueous solubility (Solubility) of the same molecule?
The aqueous solubility was “reasonable aqueous solubility”.

And the cell cycle effect (MDA-MB-468 cells)?
The cell cycle effect was “G1/S arrest”.

— US11225469B2, “Inhibitors of phosphoglycerate dehydrogenase (PHGDH) and uses thereof” (Whitehead Institute for Biomedical Research, priority 2015, dated 2022)
